In brackets after ≈: the same amount, converted by molar mass.

Results on two compounds are retold here after publication PMC6858451, “Rhesus Theta Defensin 1 Promotes Long Term Survival in Systemic Candidiasis by Host Directed Mechanisms” (Scientific Reports, 2019).

In assay [1] the test system is clinical isolate of C. albicans. As to conditions: 10 mg/kg i.p. daily beginning 24 h after infection; cited from earlier work. The source says: Despite the remarkable in vitro properties of HDPs, efforts to develop them as therapeutics have met with limited success. Barriers encountered include lack of peptide stability, toxicity, adverse proinflammatory properties, and poor bioavailability.

Assay [2] has as its system C. albicans 43001. Briefly: MIC/MFC, broth microdilution (modified CLSI M27-A2). The assay is classed as cell-based. As for the experimental part: (§1) C. albicans strains were tested against RTD-1, fluconazole, and caspofungin in microdilution broth in accordance with Clinical and Laboratory Standards Institute (CLSI) document M27-A2 with the exception that 25 mM MOPS was used in place of 165 mM MOPS, as described previously. Overnight cultures were harvested by centrifugation, washed twice with Ca^2+ and Mg^2+-free PBS, pH 7.2, and suspended in test medium (RPMI 1640 medium, 25 mM MOPS, 2 mM L-glutamine) at 10^4 CFU/ml[62]. Incubations were conducted in flat bottom, 96-well microtiter plates (Greiner bio-one, Monroe, NC) containing 0.2 ml test medium per well. Duplicate 0.1 ml aliquots of serial two-fold dilutions of peptides and antifungal drugs were dispensed into wells, each of which was inoculated with 0.1 ml of fungal cell suspension containing 1 × 10^3 CFU. Plates were incubated at 30 °C for 48 hours after which A600 was determined using a SpectraMax M5e plate reader.
(§2) Minimal fungicidal concentration (MFC) was determined by plating, on YPD plates, 10 µl from wells in MIC assay without cell growth and the first well with measurable turbidity as described[63]–[66] and corresponding aliquots from the no-agent controls. […] MFC is reported as the lowest concentration of peptide or antifungal drug that killed ≥99% of the input organisms.
(§3) MICs and MFCs of RTD-1 were also performed in the presence of 50% mouse serum. Serum was prepared from blood collected by cardiac puncture from BALB/c mice. After coagulation at room temperature, serum was collected by centrifugation (200 g for 10 min followed by 23,000 g for 15 min), and diluted with an equal volume of yeast inoculum in MIC test medium described above.

Assay [3] relates to C. albicans 53264. The description is as above. The assay is classed as cell-based. As for the experimental part: as §1, §2, §3
Assay [4] relates to C. albicans SC5314. The assay is described as above. The assay is classed as cell-based. The note with it: Candida albicans. As for the experimental part:
as §1, §2, §3

Assay [5] has as its system C. albicans 53264 biofilms. Briefly: Biofilm XTT metabolic assay. The note with it: pre-adhesion, 2 h adherent and 24 h mature biofilms. The assay is classed as cell-based. The procedure: (§4) The antifungal activities of RTD-1, caspofungin and fluconazole were evaluated against biofilms of C. albicans SC5314 and 53264 essentially as described by Pierce et al.[67]. Briefly, biofilms established for 0 h (preadhesion), 2 h (adherent), or 24 h (mature) were developed by adding 1 × 10^5 yeast cells in 50 or 100 µl of RPMI-1640 to wells of flat-bottom 96-well microtiter plates (Costar, Corning, NY). Fifty or 100 µl aliquots of serial 2-fold dilutions of peptide or antifungal drugs were added to wells in triplicate and incubated for 24 h or 48 h prior to analysis of biofilm metabolic activities. Concentrations of reagents used were as follows: RTD-1 - 0.09 – 100 µg/ml (0.05–48 µM), Fluco – 1–250 µg/ml (3.3–816.3 µM); Caspo- 0.003–8 µg/ml ([…]–7.3 µM). Analysis of the effect of each agent on Candida biofilms was performed using an XTT colorimetric assay. One hundred µl of 1 µM XTT/menadione added to each biofilm well, plates were incubated in the dark for 3 h at 37 °C, and 80 µl of supernatant was transferred to a new 96-well flat-bottom microtiter plate (Greiner Bio-one, Monroe, NC). Absorbance was measured at 490 nm on a SpectraMax® i3x (Molecular Devices). Readings were plotted as average of triplicates after subtracting the corresponding values for negative controls (XTT/menadione only).

Assay [6] concerns C. albicans SC5314 biofilms. Briefly: Biofilm XTT metabolic assay. The assay is classed as cell-based. As to conditions: pre-adhesion conditions. The procedure:
as §4

The subject of assay [7] is C. albicans SC5314. Put plainly: Systemic candidiasis model, survival and renal fungal burden. The assay is classed as in vivo, BALB/c mice. As for the experimental part: The efficacy of RTD-1 in vivo was evaluated in an established model of systemic candidiasis using C. albicans SC5314. Both immunocompetent and immunosuppressed mouse models are employed in preclinical studies of systemic candidiasis. Since many of our preliminary studies employed the […] model, we conducted efficacy studies with RTD-1 and reference antifungal drugs in immunocompetent BALB/c mice. Mice were challenged i.v. with 3 × 10^5 blastospores at T = 0, which rapidly produces disseminated candidiasis and colonizes major organs in a manner resembling systemic candidiasis in humans. […] We analyzed the effect of a single 5 mg/kg dose of RTD-1 administered i.v., s.c., or i.p. immediately after i.v. fungal challenge, with i.p. saline as vehicle control. Fluco and Caspo, administered i.p. at 5 mg/kg, were used as drug comparators. […] In subsequent studies, antifungal agents were administered i.p. to circumvent potentially confounding effects resulting from treatment by the same route as infection, which was i.v. in all experiments.
(§5) BALB/c female mice (7–8 weeks old) and CD-1 female mice (4–5 weeks old) were obtained from Charles River Laboratories and allocated randomly in groups of five mice per cage. Mice were maintained on a 12 h light/dark cycle in thermostatically controlled rooms for the duration of the experiment. C. albicans inocula were prepared fresh each day from saturated cultures grown overnight in YPD medium, washed in sterile PBS, and fungi were counted with hemocytometer. Stock suspensions were prepared in sterile PBS. BALB/c mice were challenged with 2 × 10^6 CFU/ml wild-type C. albicans reference strain SC5314, while CD-1 mice were challenged with 1.8 × 10^7 CFU/ml (0.15–0.2 ml) C. albicans clinical isolate 53264 by i.v. injection into the lateral caudal tail vein using a 28 G 1/2 inch needle. Animals were treated by i.v., s.c., or i.p. routes immediately post-infection (p.i.) or 24 h p.i. with sterile saline (control), RTD-1, fluconazole, or caspofungin administered at the concentrations indicated in a 0.200 ml. Mice were weighted and monitored daily for general clinical condition. Mice were euthanized as approved by the USC IACUC and in compliance with the National Institutes of Health Guide for the Care and Use of Laboratory Animals. All experiments were repeated at least three times.
(§6) To assess systemic fungal clearance, renal fungal burden was determined. Mice were euthanized at times indicated, and both kidneys were weighed, homogenized in 5 ml of sterile PBS, and serial dilutions of homogenate were plated on YPD agar plates and incubated at 30 °C for 2 days. CFU per gram of kidney was calculated.

For assay [8], the system named is C. albicans 53264. Put plainly: Systemic MDR candidiasis model, survival and renal fungal burden. The assay is classed as in vivo, CD-1 mice. As to conditions: 5 mg/kg i.p. once per day for 7 days beginning 24 h p.i.; 1.8 × 10^7 blastospores i.v.; 40 days. As for the experimental part:
(as in Fig. 3d). CD-1, rather than BALB/c mice were used in the C. albicans 53264 challenge studies as this mouse strain was employed by Wiederhold et al. in the assessment of caspofungin efficacy against this pathogen. […] Fungal burdens were determined in kidneys of long term survivors in the RTD-1, Caspo, and Fluco-treated cohorts (euthanized at day 40) and from moribund mice from the survival study in Fig. 7a.
as §5, §6

Regarding IDR-1018, in assay [1], the renal fungal burden result is “similarly modest reduction in renal fungal burden” and the survival entry is listed as “modestly improved survival up to 8 days p.i”.

For the compound `OC(Cn1cncn1)(Cn1cncn1)c1ccc(F)cc1F` [Fluco, fluconazole], the minimal inhibitory concentration (MIC) in assay [2] (Candida albicans, 43001, 48 h) was above 256 µg/mL; in assay [3] (Candida albicans, 53264, 48 h), above 256 µg/mL; in assay [4] (RPMI 1640, 25 mM MOPS, 2 mM L-glutamine, 1 × 10^3 CFU/well, 30 °C, 48 h, A600, complete inhibition of growth, duplicate), 64 µg/mL (≈ 209 µM). Besides, the MFC in assay [2] (Candida albicans, 43001, RPMI, plating of MIC wells on YPD, ≥99% killing of input inoculum) is above 256 µg/mL; in assay [3] (Candida albicans, 53264, RPMI, plating of MIC wells on YPD, ≥99% killing of input inoculum), above 256 µg/mL; in assay [4] (RPMI, plating of MIC wells on YPD, ≥99% killing of input inoculum) it was above 256 µg/mL. In addition, the “biofilm inhibition (XTT)” value in assay [5] is listed as “highly resistant”; in assay [6], “more effective than RTD-1 at concentrations below 50 µg/ml”. Further, the survival entry in assay [7] (5 mg/kg i.p. once a day for 7 days, first dose 24 h after infection, 30 d) is given as “markedly enhanced survival”; in assay [7] (single 5 mg/kg dose at T = 0 (RTD-1 i.v., s.c. or i.p.; Fluco, Caspo i.p.), 3 × 10^5 blastospores i.v., 30 days, vs saline) it was “effective in enhancing survival”. Also, the “survival (log-rank)” value in assay [8] was “significantly (P < 0.0001) improved survival”.
